{"source": "patent US6930092B1", "about": "“Antibiotic agents” (priority 1999, dated 2005)", "key": {"[1]": {"details": "cited from earlier work"}, "[2]": {"assay": "Degradation of 5-deB in Britton-Robinson buffer followed by 1D 1H NMR", "assay_type": "physicochemical", "details": "apparent pH 2.5, 55° C., 5 hr", "source_text": "The deuteriation effects at C8 as in erythromycin B were observed but there was no change elsewhere."}, "[3]": {"assay_type": "physicochemical", "procedure": "The suspected intermediate, eBee was prepared and then was added into a partially degraded erythromycin B, the mixture of partially degraded erythromycin B, and the pure eBee solution were compared. […] However, the involvement of eBee as the intermediate in the degradation of erythromycin B was clearly observed in the degradation experiment of eBee.\nAt present, there is no mechanism of degradation of erythromycin B which has been proposed. An experiment was designed to distinguish whether eBee is degraded to 5-deB via erythromycin B or not. Britton-Robinson buffers, 40 mM of pH2 and 7 were prepared and aliquoted into eppendorf tubes. Just before the experiment started, erythromycin B was dissolved in 20 ul of dimethyl-d6 sulfoxide (99.9 atom % D, Sigma, St Louis, USA) and then was transferred immediately into the buffer and 1D^1H NMR spectra were recorded at 37° C. The typical spectra at 0, 10 and 20 min are depicted in FIGS. 19, 20 and 21, respectively.\nAfter 10 min, the amount of eBee was reduced to almost 40%, but 5-deB was still undetectable. After 20 min, 5-deB appeared in the spectrum, characterised by its H13 at δ5.38, whilst eBee became insignificant in the spectrum.\nA similar experiment was repeated by using buffer at pH 7, and 1D^1H spectra were recorded at 37° C. The spectrum of eBee after 0 and 60 min of incubation are depicted in FIGS. 22 and 23, respectively. […] There was trace of erythromycin B but no eBee was detected in the spectra."}}, "note": "Read-outs that look alike come from different tables or passages of the source.", "data": [{"compound": "CC[C@H]1OC(=O)[C@H](C)[C@@H](O[C@H]2C[C@@](C)(OC)[C@@H](O)[C@H](C)O2)[C@H](C)[C@@H](O[C@@H]2O[C@H](C)C[C@H](N(C)C)[C@H]2O)[C@](C)(O)C[C@@H](C)C(=O)[C@H](C)[C@@H](O)[C@]1(C)O", "note": "[erythromycin A]", "values": [{"measurement": "time in which degraded to completeness", "setting": "[1]; 50 mM acetate buffer pH 4.6, 60° C.", "value": "≤ 3", "unit": "h"}, {"measurement": "time in which decomposed almost completely", "setting": "[1]; 50 mM formate buffer pH 4, 37° C.", "value": "≤ 4", "unit": "h"}, {"measurement": "degradation", "setting": "[1]; pH 3.5, 35° C.", "value": "degraded substantially even before the first spectrum was recorded"}]}, {"compound": "5-desosaminyl erythronolide B [5-deB]", "values": [{"measurement": "further degradation", "setting": "[2]", "value": "does not degrade further"}]}, {"compound": "CC[C@H]1OC(=O)[C@H](C)[C@@H](O[C@H]2C[C@@](C)(OC)[C@@H](O)[C@H](C)O2)[C@H](C)[C@@H](O[C@@H]2O[C@H](C)C[C@H](N(C)C)[C@H]2O)C2(C)CC(C)=C(O2)[C@H](C)[C@@H](O)[C@H]1C", "note": "(stereo partly shown) [eBee, erythromycin B enol ether]", "values": [{"measurement": "amount of eBee in the spectrum", "setting": "[3]; Britton-Robinson buffer pH 2, 37° C., after 20 min", "value": "insignificant"}, {"measurement": "amount of eBee remaining", "setting": "[3]; buffer, 10 min, pH 2", "value": "~40", "unit": "%"}, {"measurement": "degradation", "setting": "[3]; pH 2.5", "value": "rapidly degraded to erythromycin B"}, {"measurement": "degradation", "setting": "[3]; pH 7", "value": "not degraded at least for 80 min"}]}, {"compound": "CC[C@H]1OC(=O)[C@H](C)[C@@H](O[C@H]2C[C@@](C)(OC)[C@@H](O)[C@H](C)O2)[C@H](C)[C@@H](O[C@@H]2O[C@H](C)C[C@H](N(C)C)[C@H]2O)[C@](C)(O)C[C@@H](C)C(=O)[C@H](C)[C@@H](O)[C@H]1C", "note": "[erythromycin B, Erythromycin B]", "values": [{"measurement": "time in which decomposition was completed", "setting": "pH 2.5, depending on the temperature used", "value": "6 to 12", "unit": "h"}, {"measurement": "degradation", "setting": "pH 4.6", "value": "degradation occurred very slowly"}]}]}
